Assays:
[1] = test system: NK-cells activity (lymphocytes) against K-562 cells; assay: Inhibition of NK-cells activity (chromium release cytotoxicity of lymphocytes against K-562); assay type: cell-based, human; details: for % specific cytotoxicity: ratio 20:1; for cytolytic effect after preincubation with the oligosaccharides: in concentrations down to 0.3 mg/ml
Procedure: Lymphocytes isolated from peripheral blood drained from normal donors have the ability of exerting a cytotoxic, (i.e. cell killing activity against certain types of cells in culture. In the instant example there is used a human leukemia cell line called K-562 as a target cell for such cytolytic activity.
Method: K-562 cells intracellularly labelled with radioactive chromium are incubated with effector cells (lymphocytes) for 4 hours at 37° C. The cytotoxic effect is measured as the quantity of isotope released in relation to remaining isotope in the target cells. For details see Malmstrom, P., Jonsson, Å, and Sjogren, H.O. "Countercurrent distribution of lymphocytes from human peripheral blood in an aqueous two-phase system. II. Separation into subsets of lymphocytes with distinctive functions". Cell Immunol. 53:51-64, 1980. For studying inhibiting substances effector cells (6×10^6 cells/ml) are preincubated with the respective oligosaccharides diluted in cultivating medium for half an hour at 37° C. After washing with centrifugation the effector cells are transferred directly to the target cells.

[2] = test system: haemagglutination between sheep erythrocytes and S. saprophyticus bacteria (Mc 2 and Mc 194); assay: Inhibition of haemagglutination of sheep erythrocytes with Staphylococcus saprophyticus; assay type: cell-based; details: for minimal effective concentration: Staphylococcus saprophyticus, Erythrocyte, read-out: Minimum inhibitory con.
Procedure: In the tests the bacteria S. saprophyticus strains, both isolated from urine from patents having urinary tract infection, were used. The bacteria were cultivated in tryptone broth over night, pelletized by means of centrifugation and washed twice with PBS, pH 7.2. Haemagglutination was performed using erythrocytes from sheep obtained from sheep blood and washed twice with 0.85 % saline.
In the haemagglutination-indication experiments microtitre plates (Limbo Sc. Comp. Inc) were used. 25 μl of bacterial suspension were titrated in PBS by two-step titre steps, 25 μl of 1% erythrocyte suspension being then added. The haemagglutination titre was determined after incubation of the plates for 2-4 hours in room temperature.
In the inhibition experiments serial dilutions of the relevant inhibitor (50 μl/well) and 25 μl of bacterial suspension diluted to contain 2 HU haemagglutinating units of bacteria were used. The plates were incubated for 30 minutes at 37° C., 25 μl of the erythrocyte suspension being then added to each well.

[3] = test system: haemagglutination between GRBC and Bordetella pertussis bacteria or fimbriae thereof; assay: Inhibition of haemagglutination of goose erythrocytes (GRBC) with Bordetella pertussis; assay type: cell-based; details: for minimal effective concentration: Bordetella pertussis, Erythrocyte, 4 h, read-out: Minimum inhibitory concentration
Procedure: In the tests bacteria of the type Bordetella pertussis newly sampled from an individual suffering from whooping cough were used. The bacteria were cultivated on CFA-agar at +37° C. for 18 hours. The bacterial growth was slurried in PBS, pH 7.2 to a density of 1×10^10 bacteria/ml. Fimbriae from the bacterium were obtained in the following manner:
The bacteria were cultivated on Roux flasks with CFA-agar. After incubation at +37° for 24 hours the bacteria were harvested by adding 10 ml PBS/flask and sterile glass balls. The flasks were shaken and the bacterial suspension removed. The bacteria were pelletized by centrifugation (3000×g, +4°, 30 min.). The supernatant was removed by suction. The bacteria were resuspended in 10 ml PBS and the suspension was treated in a Waring blendor 2 x 20 seconds. The suspension was centrifuged (5000×g, +4°, 30 min.) to pelletize the bacteria. The supernatant containing fimbriae was removed by suction. The bacterial pellet is resuspended, treated in a Waring blender and after centrifugation the supernatant is again recovered. The two supernatants are pooled and ammonium sulphate is added to a concentration of 30 %. After stirring the supernatants are allowed to stand at +4° C. for 18 hours, centrifugation then taking place at 5000 ×g. The supernatant was separated and the precipitation was dialyzed against PBS. The solubilized fimbriae fraction was precipitated with ammonium sulphate once more and dialyzed.
Haemagglutination is performed using erythrocytes from geese (GRBC) suspended to a concentration of 3% v/w in PBS. The agglutination tests were carried out so that 50 μl GRBC were mixed with 2-step dilution of antigen 50 μl bacterial suspension or 50 μl fimbriae suspension and 50 μl PBS in microtitre plates. The plates were sealed with Parafilm and incubated at […] for 4 hours and were then recorded. The last well wherein agglutination could be read by the eye is considered as 1 haemagglutinating unit (1 HU).
In the inhibition experiments there were added instead of PBS 50 μl of an oligosaccharide solution, the inhibiting capacity was studied. […]

[4] = test system: adhesion of S. saprophyticus to urinary epithelial cells; assay: Inhibition of adherence of S. saprophyticus to urinary epithelial cells; assay type: cell-based, Staphylococcus saprophyticus; details: Staphylococcus saprophyticus, Epithelial cell, 0.75 h, read-out: reduction of the number of adhering bacteria
Procedure: Cells from urinary epithelium were suspended in cell cultivation medium RPMI 1640 (Flow Ltd) to a concentration of 10^5 cells/ml.
Microorganisms of the type S. saprophyticus were suspended in RPMI 1640 to a concentration of 10^9 bacteria/ml. Oligosaccharides which were tested for their ability of preventing adhesion of S. saprophyticus to urinary epithelial cells were dissolved in RPMI 1640 to a concentration of 5 mg/ml. In the experiments 1 ml of the oligosaccharide solution was incubated with 0.1 ml bacterial suspension at 37° C. for 30 minutes. Urinary epithelial cells were incubated with the bacterial suspension incubated in advance as described above with oligosaccharide solution for 45 minutes at 37° C. As a control there was used a bacterial suspension preincubated with 1 ml RPMI 1640.
Incubated samples were filtrated through a 12μ filter and washed 3 times with PBS. The filter was pressed against microscope slides for a few seconds, the slides being then fixed in methanol for 10 minutes. The slides were dried in air and coloured with acridine orange for 2 minutes. The slides were washed, dried in air and studies in fluorescence microscope. The number of bacteria per cell was counted. In each experiment 50 cells were counted.

S. saprophyticus = assay: Removal of S. saprophyticus from an infected surface (disinfection); parameters: species or system Staphylococcus saprophyticus; details: 0.1 percent by weight aqueous solution, cotton pad
Procedure: A 0.1 percent by weight aqueous solution of the compound β-D-Galp-(1-4)-D-GNAc is prepared and applied by using a cotton pad on a surface infected by S. saprophyticus.

[5] = 0.3 mg/ml oligosaccharide, experiment 1 (without inhibitor 22.3)
[6] = 0.3 mg/ml oligosaccharide, experiment 2 (without inhibitor 32.0)
[7] = 1 mg/ml oligosaccharide, experiment 1 (without inhibitor 22.3)
[8] = 1 mg/ml oligosaccharide, experiment 2 (without inhibitor 32.0)
[9] = 3 mg/ml oligosaccharide, experiment 1 (without inhibitor 22.3)
[10] = 3 mg/ml oligosaccharide, experiment 2 (without inhibitor 32.0)

## CC(=O)N[C@H]1[C@H](O[C@@H]2[C@@H](OC[C@H]3O[C@@H](O[C@H]4[C@H](O)[C@@H](NC(C)=O)C(O)O[C@@H]4CO)[C@@H](O)[C@@H](O)[C@@H]3O)O[C@H](CO)[C@@H](O)[C@@H]2O)O[C@H](CO)[C@@H](O[C@@H]2O[C@H](CO)[C@H](O)[C@H](O)[C@H]2O)[C@@H]1O (stereo partly drawn) [GM1 -penta, β-Galp-(1-4)-β-GNAcp-(1-2)-α-Manp-(1-6)-β-Manp-(1-4)-GNAc]
[1]; [5]
  % specific cytotoxicity: 16.8%
[1]; [6]
  % specific cytotoxicity: 13.9%
[1]; [7]
  % specific cytotoxicity: 6.5%
[1]; [8]
  % specific cytotoxicity: 2.7%
[1]; [9]
  % specific cytotoxicity: -1.4%
[1]; [10]
  % specific cytotoxicity: 0.0%
[1]
  cytolytic effect after preincubation with the oligosaccharides: inhibited
[2]
  minimal effective concentration: 250 µg/mL
[3]
  minimal effective concentration: 675 µg/mL

## CC(=O)N[C@H]1[C@H](O[C@@H]2[C@@H](OC[C@H]3O[C@@H](O[C@H]4[C@H](O)[C@@H](NC(C)=O)C(O)O[C@@H]4CO)[C@@H](O)[C@@H](O[C@H]4O[C@H](CO)[C@@H](O)[C@H](O)[C@@H]4O[C@@H]4O[C@H](CO)[C@@H](O[C@@H]5O[C@H](CO)[C@H](O)[C@H](O)[C@H]5O)[C@H](O)[C@H]4NC(C)=O)[C@@H]3O)O[C@H](CO)[C@@H](O)[C@@H]2O)O[C@H](CO)[C@@H](O[C@@H]2O[C@H](CO)[C@H](O)[C@H](O)[C@H]2O)[C@@H]1O (stereo partly shown) [drawing 7]
[3]
  minimal effective concentration: 175 µg/mL

## CC(=O)N[C@H]1C(O)O[C@H](CO)[C@@H](O[C@@H]2O[C@H](CO)[C@H](O)[C@H](O)[C@H]2O)[C@@H]1O (stereo partly drawn) [β-Galp-(1-4)-GNAc]
[4]
  inhibition at 5000 µg/mL: ~85%
[2]
  minimal effective concentration: 300 µg/mL
S. saprophyticus
  removal of the bacterium from the surface: effective removal of the bacterium from the surface

## Asialofetuin
[1]; [5]
  % specific cytotoxicity: 10%
[1]; [6]
  % specific cytotoxicity: 15%
[1]; [7]
  % specific cytotoxicity: 7.0%
[1]; [8]
  % specific cytotoxicity: 5.0%
[1]; [9]
  % specific cytotoxicity: 1.5%
[1]; [10]
  % specific cytotoxicity: 1.0%
[1]
  cytolytic effect after preincubation with the oligosaccharides: inhibited
[2]; Inhibition of haemagglutination, S. saprophyticus Mc 2 and Mc 194, 2 HU bacteria
  Minimum inhibitory con.: 125 µg/mL
[3]; Inhibition of haemagglutination, 3% GRBC, 2-4 HU bacteria or fimbriae, +44° C., 4 hours
  Minimum inhibitory concentration: 150 µg/mL

From patent publication US4851338A, “Method for diagnosing the presence of bacteria” (Biocarb AB, priority 1982, dated 1989)
